16 compounds from US20130252930A1 (BIOMARIN PHARMACEUTICAL INC., priority 2010, published 2013) can be followed below.

Each structure is given as a SMILES string. pIC50: −log10 of the molar value. Like-named read-outs stand apart in the source and are kept apart here. Bounds are passed on as bounds.

The target of data set [1] is T1, CYP17 (human testicular microsome) (Homo sapiens, UniProt P05093).
T1 construct: using microsomal fraction from human testis (Celsis Cat #S00110) as the enzyme source; tissue Celsis S00110; host or cells: human testis microsomal fraction
T1 sequence (P05093 1-508): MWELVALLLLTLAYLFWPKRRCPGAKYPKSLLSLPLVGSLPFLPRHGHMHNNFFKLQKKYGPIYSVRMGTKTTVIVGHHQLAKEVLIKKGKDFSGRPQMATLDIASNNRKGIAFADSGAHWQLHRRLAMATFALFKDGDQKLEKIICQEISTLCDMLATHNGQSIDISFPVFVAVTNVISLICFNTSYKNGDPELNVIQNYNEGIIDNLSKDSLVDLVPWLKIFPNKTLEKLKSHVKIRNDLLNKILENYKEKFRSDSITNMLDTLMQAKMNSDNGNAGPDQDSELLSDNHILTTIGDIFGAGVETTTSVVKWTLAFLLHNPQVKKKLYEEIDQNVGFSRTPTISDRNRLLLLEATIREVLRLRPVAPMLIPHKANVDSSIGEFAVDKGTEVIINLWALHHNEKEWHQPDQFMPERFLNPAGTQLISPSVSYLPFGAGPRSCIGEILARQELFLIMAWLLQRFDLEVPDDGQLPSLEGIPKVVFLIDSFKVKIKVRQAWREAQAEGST
Briefly: CYP17 enzymatic assay (IC50) (Biological Example 4). It is filed as biochemical.
Experimental: The assays were performed in 96-well plates. Typical assays were carried out in total 100 μL volume that included test compounds at designated concentrations, 1× reaction buffer, 0.5 mM NADPH, 1 μM 17α-hydroxypregnenolone, and 2.5 μL of diluted human testicular microsome (Celsis. Cat #S00110). Reaction without test compound served as positive control. Reactions were allowed to incubate at 37° C. for 90 minutes with gentle shaking. The reaction was stopped by directly applying the enzymatic reaction mixture to ELISA plate for evaluation of DHEA concentration according to manufacturer's protocol (IBL America). A standard curve (OD450 vs. DHEA concentration) was generated using purified DHEA.

Data set [2] concerns the target T1, CYP17 (human testicular microsome). As to the kind of experiment: CYP17 enzymatic assay (% inhibition at 10 nM), version 1 (Biological Example 5). It is filed as biochemical. Particulars: 10 nM compound, DHEA by ELISA, read-out: Biological Example No. 5: CYP17 percent inhibition at 10 nM (version 1). (In an ELISA, binding on a coated surface is turned into a signal by an enzyme label.)

Data set [3] in a line: Rat liver microsome stability assay (Biological Example 8a). Particulars: liver microsomes, pH 7.4. A general note: Microsomes from liver hold many membrane-bound enzymes, among them those of drug oxidation.
Data set [4] in a line: Human liver microsome stability assay (Biological Example 8b). Particulars: liver microsomes, pH 7.4.
Experimental: The reaction was started with addition of excess NADPH (5 mg/mL, 15 μL in 0.1 M potassium phosphate buffer, 1.0 mM EDTA, pH 7.4), the total volume is 45 μL (compound final concentration was 1 μM). […] 50 μL of the supernatant was transferred from each well into a 96-well sample plate containing 50 μL of ultra-pure water (Millipore) for LC-MS/MS analysis.
The next data set addresses T2, CYP17 (H295R cells) (Homo sapiens, UniProt P05093).
T2 construct: endogenous in cells; host or cells: H295R cells
T2 sequence (P05093 1-508): T1 sequence (P05093 1-508)
As to the kind of experiment: CYP17 cellular assay (IC50), testosterone in H295R cells (Biological Example 7). In kind it is cell-based. The gist of the method: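 Testosterone in the medium was quantified by ELISA after 24 h at 37 °C with test compound (final 100, 10, 1, 0.1 nM; serum-free DMEM/F-12, ITS+, 0.1% methanol). The H295R cells had been seeded and grown 24 h beforehand; vehicle wells served as control.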

[5] abbreviates: human testicular microsome, DHEA by ELISA, read-out: Biological Example No. 4: CYP17 enzymatic assay IC50.
Setting [6] is: H295R cells, testosterone by ELISA, 24 hours, read-out: Biological Example No. 7: CYP17 cellular assay IC50.

The term pIC50 denotes −log10 of the IC50, conventionally taken in molar units. The term inhibition denotes the percentage by which the read-out fell short of the control. Broadly, the half-life is how long it takes for the measured level to halve. Read a low half-life as rapid decline. Consider `Cc1cncc(C2=CC[C@H]3[C@@H]4CCN5C(=O)CCCC[C@]5(C)[C@H]4CC[C@]23C)c1` [Compound 39, (11aR,13aS)-11a,13a-dimethyl-1-(5-methylpyridin-3-yl)-3b,4,5,8,9,10,11,11a,11b,12,13,13a-dodecahydro-3H-azepino[2,1-a]cyclopenta[f]isoquinolin-7(3aH)-one], for which, in data set [1] (setting [5]), the pIC50 is greater than 7.96. Moreover, the inhibition at 0.01 µM in data set [2] was in the range of 50 to 80%. This compound also gave a half-life at 1 μM in data set [3] of 1 to 10 min.

On to `COc1cncc(C2=CC[C@H]3[C@@H]4CCN5C(=O)CCCC[C@]5(C)[C@H]4CC[C@]23C)c1` [Compound 40, (11aR,13aS)-1-(5-methoxypyridin-3-yl)-11a,13a-dimethyl-3b,4,5,8,9,10,11,11a,11b,12,13,13a-dodecahydro-3H-azepino[2,1-a]cyclopenta[f]isoquinolin-7(3aH)-one], for which, in data set [1] (setting [5]), the pIC50 was greater than 7.96. Further, the inhibition at 0.01 µM in data set [2] is greater than 80%. Further, in data set [3], the half-life at 1 μM is 1 to 10 min.

Take `CCc1cncc(C2=CC[C@H]3[C@@H]4CCN5C(=O)CCCC[C@]5(C)[C@H]4CC[C@]23C)c1` [Compound 41, (11aR,13aS)-1-(5-ethylpyridin-3-yl)-11a,13a-dimethyl-3b,4,5,8,9,10,11,11a,11b,12,13,13a-dodecahydro-3H-azepino[2,1-a]cyclopenta[f]isoquinolin-7(3aH)-one]: in data set [1] (setting [5]), the pIC50 was greater than 7.96. For the same compound, the inhibition at 0.01 µM in data set [2] is greater than 80%. Further, the half-life at 1 μM in data set [3] was 1 to 10 min.

In the case of `C[C@]12CCCCC[C@@H]1CC[C@@H]1[C@@H]2CC[C@]2(C)C(n3ccnc3)=CC[C@@H]12` [Compound 97, 1-((3aS,3bR,5aR,10aS,10bS,12aS)-10a,12a-dimethyl-3,3a,3b,4,5,5a,6,7,8,9,10,10a,10b,11,12,12a-hexadecahydrocyclohepta[a]cyclopenta[f]naphthalen-1-yl)-1H-imidazole], the negative logarithm of the IC50 (pIC50) in data set [1] (setting [5]) is greater than 7.96. Moreover, in data set [2], the inhibition at 0.01 µM fell in the range of 50 to 80%. Also, the half-life at 1 μM in data set [3] lay in the range of 10 to 60 min.

On to `CN1C(=O)COC[C@@]2(C)C1CC[C@@H]1[C@@H]2CC[C@]2(C)C(c3cccnc3)=CC[C@@H]12` (stereo partly drawn) [Compound 98, (5aR,5bS,7aS,10aS,10bS)-1,5a,7a-trimethyl-8-(pyridin-3-yl)-5,5a,5b,6,7,7a,10,10a,10b,11,12,12a-dodecahydro-1H-cyclopenta[5,6]naphtho[2,1-e][1,4]oxazepin-2(3H)-one], for which, in data set [1] (setting [5]), the negative-log IC50 (pIC50) was greater than 7.96. Moreover, the inhibition at 0.01 µM in data set [2] was 50 to 80%. This compound returned a half-life at 1 μM in data set [3] of 1 to 10 min.

Regarding `C[C@]12CC(=O)C[C@@H]1CC[C@@H]1[C@@H]2CC[C@]2(C)C(n3ccnc3)=CC[C@@H]12` [Compound 108, (3aS,3bS,5aS,8aS,8bR,10aS)-6-(1H-imidazol-1-yl)-3a,5a-dimethyl-3,3a,3b,4,5,5a,8,8a,8b,9,10,10a-dodecahydrodicyclopenta[a,f]naphthalen-2(1H)-one], in data set [1] (setting [5]), the pIC50 is greater than 7.96. Besides, the inhibition at 0.01 µM in data set [2] was greater than 80%. The half-life at 1 μM in data set [3] was 1 to 10 min; in data set [4] it was greater than 50 min.

On to `C[C@]12CCOCC[C@@H]1CC[C@@H]1[C@@H]2CC[C@]2(C)C(c3cccnc3)=CC[C@@H]12` [Compound 120, 3-((5aS,5bS,7aS,10aS,10bR,12aS)-5a,7a-dimethyl-2,4,5,5a,5b,6,7,7a,10,10a,10b,11,12,12a-tetradecahydro-1H-cyclopenta[5,6]naphtho[1,2-d]oxepin-8-yl)pyridine], for which the negative logarithm of the IC50 (pIC50) in data set [1] (setting [5]) is greater than 7.96. Also, in data set [2], the inhibition at 0.01 µM is greater than 80%. Moreover, the half-life at 1 μM in data set [3] was in the range of 1 to 10 min.

In the case of `C[C@]12CCCOC[C@H]1CC[C@@H]1[C@@H]2CC[C@]2(C)C(c3cccnc3)=CC[C@@H]12` [Compound 121, 3-((5aR,5bS,7aS,10aS,10bR,12aS)-5a,7a-dimethyl-3,4,5,5a,5b,6,7,7a,10,10a,10b,11,12,12a-tetradecahydro-1H-cyclopenta[5,6]naphtho[2,1-c]oxepin-8-yl)pyridine], in data set [1] (setting [5]), the pIC50 was greater than 7.96. Moreover, the inhibition at 0.01 µM in data set [2] is greater than 80%. The compound also yielded a half-life at 1 μM in data set [3] of 1 to 10 min.

Take `COc1cncc(C2=CC[C@H]3[C@@H]4CC[C@H]5CCOCC[C@]5(C)[C@H]4CC[C@]23C)c1` [Compound 122, 3-((5aS,5bS,7aS,10aS,10bR,12aS)-5a,7a-dimethyl-2,4,5,5a,5b,6,7,7a,10,10a,10b,11,12,12a-tetradecahydro-1H-cyclopenta[5,6]naphtho[1,2-d]oxepin-8-yl)-5-methoxypyridine]: the pIC50 in data set [1] (setting [5]) was greater than 7.96. For the same compound, in data set [2], the inhibition at 0.01 µM lay within 50 to 80%. Besides, in data set [3], the half-life at 1 μM is 1 to 10 min.

For the compound `COc1cncc(C2=CC[C@H]3[C@@H]4CC[C@H]5COCCC[C@]5(C)[C@H]4CC[C@]23C)c1` [Compound 123, 3-((5aR,5bS,7aS,10aS,10bR,12aR)-5a,7a-dimethyl-3,4,5,5a,5b,6,7,7a,10,10a,10b,11,12,12a-tetradecahydro-1H-cyclopenta[5,6]naphtho[2,1-c]oxepin-8-yl)-5-methoxypyridine], in data set [1] (setting [5]), the pIC50 was greater than 7.96. Also, the inhibition at 0.01 µM in data set [2] was in the range of 50 to 80%. Moreover, the half-life at 1 μM in data set [3] was 1 to 10 min.

Regarding `CCOc1cncc(C2=CC[C@H]3[C@@H]4CC[C@H]5COCCC[C@]5(C)[C@H]4CC[C@]23C)c1` [Compound 125, 3-((5aR,5bS,7aS,10aS,10bR,12aR)-5a,7a-dimethyl-3,4,5,5a,5b,6,7,7a,10,10a,10b,11,12,12a-tetradecahydro-1H-cyclopenta[5,6]naphtho[2,1-c]oxepin-8-yl)-5-ethoxypyridine], the pIC50 in data set [1] (setting [5]) is greater than 7.96. Further, in data set [2], the inhibition at 0.01 µM was in the range of 50 to 80%. This compound showed a half-life at 1 μM in data set [3] of 1 to 10 min.

`Cc1cncc(C2=CC[C@H]3[C@@H]4CC[C@H]5COCCC[C@]5(C)[C@H]4CC[C@]23C)c1` [Compound 127, 3-((5aR,5bS,7aS,10aS,10bR,12aR)-5a,7a-dimethyl-3,4,5,5a,5b,6,7,7a,10,10a,10b,11,12,12a-tetradecahydro-1H-cyclopenta[5,6]naphtho[2,1-c]oxepin-8-yl)-5-methylpyridine]: the pIC50 in data set [1] (setting [5]) is greater than 7.96. Further, the inhibition at 0.01 µM in data set [2] lay within 50 to 80%. The same compound yielded a half-life at 1 μM in data set [3] of 1 to 10 min.

In the case of `C[C@]12CCNC(=O)C[C@@H]1CC[C@@H]1[C@@H]2CC[C@]2(C)C(n3ccnn3)=CC[C@@H]12` [Compound 137], the figures for the pIC50 (in data set [1] (setting [5]); on CYP17 (H295R cells) (setting [6])) were greater than 7.96 and greater than 7.82, respectively. In addition, the inhibition at 0.01 µM in data set [2] was greater than 80%. For the same compound, the half-life at 1 μM in data set [3] was 10 to 60 min; in data set [4], greater than 50 min.

With `Cc1cn(C2=CC[C@H]3[C@@H]4CCC5=CC(=O)NCC[C@]5(C)[C@H]4CC[C@]23C)cn1` [Compound 154], the pIC50 in data set [1] (setting [5]) is greater than 7.96. Moreover, the inhibition at 0.01 µM in data set [2] fell in the range of 50 to 80%. In data set [3], this compound yielded a half-life at 1 μM of 10 to 60 min.

As to `C[C@]12CC[C@H]3[C@@H](CC[C@H]4C[C@@H](O)CC[C@@]43C)C1=CC=C2n1ccnc1` [Compound 170, (5S,8R,9S,10S,13S)-17-(1H-imidazol-1-yl)-10,13-dimethyl-2,3,4,5,6,7,8,9,10,11,12,13-dodecahydro-1H-cyclopenta[a]phenanthren-3-ol], the pIC50 in data set [1] is greater than 7.96; at CYP17 (H295R cells) (setting [6]), greater than 7.82. Also, the inhibition at 0.01 µM in data set [2] was greater than 80%. In addition, the half-life at 1 μM in data set [3] was 10 to 60 min; in data set [4], greater than 50 min.

Turning to `C[C@]12CC[C@H]3[C@@H](CC[C@H]4C[C@@H](O)CC[C@@]43C)C1=CC=C2n1ccnn1` [Compound 176, (3S,8R,9S,10S,13S)-10,13-dimethyl-17-(1H-1,2,3-triazol-1-yl)-2,3,4,5,6,7,8,9,10,11,12,13-dodecahydro-1H-cyclopenta[a]phenanthren-3-ol], the pIC50 in data set [1] was less than 7.60; on CYP17 (H295R cells), less than 7.00. Further, the half-life at 1 μM in data set [3] lay within 1 to 10 min.
